Read-outs that look alike come from different tables or passages of the source.
Experiments:
Smn protein = Smn protein assay in cultured cells (SMN HTRF); format: cell-based, human; conditions: 48 hours; for maximum fold (Fold) increase of Smn protein: SMA patient fibroblast cells, 7-point concentration data, fold increase relative to vehicle control (SMN HTRF); for EC1.5x (concentration giving 1.5-fold Smn protein increase): SMA Type 1 patient fibroblast cells (GM03813), 7-point concentration curve, SMN HTRF, concentration producing 1.5 times Smn protein vs DMSO vehicle control, read-out: EC1.5x for Smn protein expression
How it was run: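 Lysates in RIPA with protease inhibitors are incubated overnight at room temperature with HTRF anti-SMN antibodies. EC1.5x is derived from fold increase in ΔF over vehicle.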

[1] = test system: SMN2 minigene (full length SMN2 minigene mRNA containing SMN2 exon 7); assay: SMN2 minigene mRNA splicing RT-qPCR assay in cultured cells; format: cell-based, human; conditions: Homo sapiens, HEK293-H, read-out: EC1.5x for production of full length SMN2 mRNA
How it was run: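 HEK293H cells stably carrying the SMN2-A minigene treated 24 h at 37° C with compound (DMSO, 200× stock), then lysed. Multiplex RT-qPCR (SMN primers 0.4 μM final; 40 cycles) measures full-length exon 7-containing minigene mRNA, normalized to GAPDH and to vehicle; EC1.5x derived and binned by stars.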

[2] = HEK293H cells stably transfected with SMN2-A minigene, 24 hours, 7-point concentration curve, 1.5-fold relative to vehicle-treated cells

Row | Structure (SMILES) | maximum fold (Fold) increase of Smn protein (Smn protein) | melting point [°C] | EC (1.5-fold) [1, 2] [µM] | EC1.5x (concentration giving 1.5-fold Smn protein increase) (Smn protein) [nM] | EC (1.5-fold) ([1]; 24 h) [µM]
1 | COc1c(F)cc(F)cc1-c1cc2ccc(N3C[C@@H](C)N[C@@H](C)C3)cc2oc1=O [Compound 540, 3-(3,5-difluoro-2-methoxyphenyl)-7-[(3R,5S)-3,5-dimethylpiperazin-1-yl]-2H-chromen-2-one] | * (maximum fold increase of ≤1.2) | 109 to 111 | 3 to 30 |  | 
2 | Cc1cn2cc(-c3cc4ccc(C5CCNCC5)cc4oc3=O)nc2cn1 [Compound 868, 3-(6-methylimidazo[1,2-a]pyrazin-2-yl)-7-(piperidin-4-yl)-2H-chromen-2-one] | ***** (fold increase >1.65) | 247 to 253 | < 0.1 | < 300 | 
3 | Cc1cn2cc(-c3cc4ccc(N5CC[C@H]6CN(C)C[C@H]65)cc4oc3=O)nc2c(C)n1 [Compound 689, 3-(6,8-dimethylimidazo[1,2-a]pyrazin-2-yl)-7-[(3aS,6aS)-5-methylhexahydropyrrolo[3,4-b]pyrrol-1(2H)-yl]-2H-chromen-2-one] | *** (fold increase between >1.35 and ≤1.5) | 241 to 248 | 0.3 to 1 |  | 
4 | Cc1cccn2cc(-c3cc4ccc(N5CCN[C@@H](C)C5)cc4oc3=O)nc12 [Compound 248, 3-(8-methylimidazo[1,2-a]pyridin-2-yl)-7-[(3S)-3-methylpiperazin-1-yl]-2H-chromen-2-one] | ** (fold increase between >1.2 and ≤1.35) | 162 to 166 | 0.1 to 0.3 | 1000 to 3000 | 
5 | Cc1cn2cc(-c3cc4ccc(N5C[C@H](O)[C@@H](N6CCCC6)C5)cc4oc3=O)nc2c(C)n1 [Compound 739, 3-(6,8-dimethylimidazo[1,2-a]pyrazin-2-yl)-7-[(3′S,4′S)-4′-hydroxy-1,3′-bipyrrolidin-1′-yl]-2H-chromen-2-one] | **** (fold increase between >1.5 and ≤1.65) | 273 to 275 | < 0.1 | < 300 | 
6 | O=c1oc2cc(N3CCNCC3)ccc2cc1-c1ccnc(Cl)c1 [Compound 180, 3-(2-chloropyridin-4-yl)-7-(piperazin-1-yl)-2H-chromen-2-one] | * (maximum fold increase of ≤1.2) | 190 to 192 |  |  | < 0.1
7 | Cc1cn2cc(-c3cc4ccc(N5C[C@@H](C)N[C@@H](C)C5)cc4oc3=O)nc2s1 [Compound 152, 7-[(3R,5S)-3,5-dimethylpiperazin-1-yl]-3-(2-methylimidazo[2,1-b][1,3]thiazol-6-yl)-2H-chromen-2-one] | *** (fold increase between >1.35 and ≤1.5) | 210 to 212 | < 0.1 | 1000 to 3000 | 
8 | Cc1cn2cc(-c3cc4ccc(N5C[C@H]6CN(C)C[C@H]6C5)cc4oc3=O)nc2c(C)n1 [Compound 688, 3-(6,8-dimethylimidazo[1,2-a]pyrazin-2-yl)-7-[(3aR,6aS)-5-methylhexahydropyrrolo[3,4-c]pyrrol-2(1H)-yl]-2H-chromen-2-one] | ***** (fold increase >1.65) | 256 to 264 | < 0.1 | < 300 | 
9 | Cc1cc(F)c2nc(-c3cc4ccc(N[C@@H]5CCNC5)cc4oc3=O)cn2c1 [Compound 583, 3-(8-fluoro-6-methylimidazo[1,2-a]pyridin-2-yl)-7-[(3R)-pyrrolidin-3-ylamino]-2H-chromen-2-one] | ** (fold increase between >1.2 and ≤1.35) | 231 to 238 | 0.3 to 1 |  | 
10 | O=c1oc2cc(N3CCNCC3)cc(F)c2cc1-c1cn2cccc(Cl)c2n1 [Compound 392, 3-(8-chloroimidazo[1,2-a]pyridin-2-yl)-5-fluoro-7-(piperazin-1-yl)-2H-chromen-2-one] | ** (fold increase between >1.2 and ≤1.35) | 241 to 250 | 0.3 to 1 |  | 
11 | Cc1ccn2cc(-c3cc4ccc(N5CCCNCC5)cc4oc3=O)nc2c1 [Compound 216, 7-(1,4-diazepan-1-yl)-3-(7-methylimidazo[1,2-a]pyridin-2-yl)-2H-chromen-2-one] | *** (fold increase between >1.35 and ≤1.5) | 236 | 0.3 to 1 |  | 
12 | Cc1cn2cc(-c3cc4ccc(C5CCN(CCO)CC5)cc4oc3=O)nc2c(C)n1 [Compound 750, 3-(6,8-dimethylimidazo[1,2-a]pyrazin-2-yl)-7-[1-(2-hydroxyethyl)piperidin-4-yl]-2H-chromen-2-one] | ***** (fold increase >1.65) | 207 to 212 | < 0.1 | < 300 | 
13 | Cc1cn2cc(-c3cc4ccc(OCCN5CCCCC5)cc4oc3=O)nc2c(C)n1 [Compound 953, 3-(6,8-dimethylimidazo[1,2-a]pyrazin-2-yl)-7-[2-(piperidin-1-yl)ethoxy]-2H-chromen-2-one] | **** (fold increase between >1.5 and ≤1.65) | 178 to 190 | < 0.1 | < 300 | 
14 | Cc1cn2cc(-c3cc4ccc(OC5CCN(C)CC5)cc4oc3=O)nc2c(C)n1 [Compound 867, 3-(6,8-dimethylimidazo[1,2-a]pyrazin-2-yl)-7-[(1-methylpiperidin-4-yl)oxy]-2H-chromen-2-one] | **** (fold increase between >1.5 and ≤1.65) | 165 to 168 | < 0.1 | < 300 | 
15 | CN1CCN(c2ccc3cc(-c4cn5ccc(C(F)(F)F)cc5n4)c(=O)oc3c2)CC1 [Compound 115, 7-(4-methylpiperazin-1-yl)-3-[7-(trifluoromethyl)imidazo[1,2-a]pyridin-2-yl]-2H-chromen-2-one] | *** (fold increase between >1.35 and ≤1.5) | 274 to 280 | 0.3 to 1 |  | 
16 | Cc1cn2cc(-c3cc4ccc(N5CC(CN(C)C)C5)cc4oc3=O)nc2c(C)n1 [Compound 966, 7-{3-[(dimethylamino)methyl]azetidin-1-yl}-3-(6,8-dimethylimidazo[1,2-a]pyrazin-2-yl)-2H-chromen-2-one] | **** (fold increase between >1.5 and ≤1.65) | 150 to 152 | < 0.1 | < 300 | 
17 | CCN1CCN(c2ccc3cc(-c4cn5c(C)csc5n4)c(=O)oc3c2)CC1 [Compound 178, 7-(4-ethylpiperazin-1-yl)-3-(3-methylimidazo[2,1-b][1,3]thiazol-6-yl)-2H-chromen-2-one] | * (maximum fold increase of ≤1.2) | 178 to 180 | 3 to 30 |  | 
18 | O=c1oc2cc(N3CCNCC3)ccc2cc1-c1cccc(F)n1 [Compound 380, 3-(6-fluoropyridin-2-yl)-7-(piperazin-1-yl)-2H-chromen-2-one] | ** (fold increase between >1.2 and ≤1.35) | 196 to 198 |  |  | 0.3 to 1
19 | Cc1cn2cc(-c3cc4c(F)cc(N5CCCNCC5)cc4oc3=O)nc2cn1 [Compound 550, 7-(1,4-diazepan-1-yl)-5-fluoro-3-(6-methylimidazo[1,2-a]pyrazin-2-yl)-2H-chromen-2-one] | **** (fold increase between >1.5 and ≤1.65) | 270 to 274 | < 0.1 | < 300 | 
20 | O=c1oc2cc(N3CCNCC3)c(F)cc2cc1-c1nc2ccccc2s1 [Compound 157, 3-(1,3-benzothiazol-2-yl)-6-fluoro-7-(piperazin-1-yl)-2H-chromen-2-one] | * (maximum fold increase of ≤1.2) | 255 to 260 |  |  | 0.1 to 0.3
21 | C[C@H]1CN(c2cc(F)c3cc(-c4cn5cccc(Cl)c5n4)c(=O)oc3c2)CCN1 [Compound 393, 3-(8-chloroimidazo[1,2-a]pyridin-2-yl)-5-fluoro-7-[(3S)-3-methylpiperazin-1-yl]-2H-chromen-2-one] | *** (fold increase between >1.35 and ≤1.5) | 268 to 278 | 0.3 to 1 |  | 
22 | O=c1oc2cc(N3CCNCC3)cc(F)c2cc1-c1cc(F)cc(F)c1 [Cpd 290, 3-(3,5-difluorophenyl)-5-fluoro-7-(piperazin-1-yl)-2H-chromen-2-one] | * (maximum fold increase of ≤1.2) | 193 to 198 | 0.3 to 1 |  | 
23 | Cc1ccc(Nc2cc3ccc(N4CCNCC4)cc3oc2=O)nc1 [Compound 63, 3-[(5-methylpyridin-2-yl)amino]-7-(piperazin-1-yl)-2H-chromen-2-one] | ** (fold increase between >1.2 and ≤1.35) | 225 to 228 | 1 to 3 |  | 
24 | O=c1oc2cc(N3CCNCC3)ccc2cc1-c1cc2ccccn2c1 [Cpd 529, 3-(indolizin-2-yl)-7-(piperazin-1-yl)-2H-chromen-2-one] | * (maximum fold increase of ≤1.2) | 186 to 188 | 1 to 3 |  | 

Reference: USRE47689E1, “Compounds for treating spinal muscular atrophy” (PTC Therapeutics, Inc., priority 2011, dated 2019)
